Measured values from patent publication US9833497B2, “Human originated EGF domain proteins and use of the same” (CHENGDU SOURCEBIO LIMITED-LIABILITY COMPANY, priority 2013, dated 2017).

How the values were obtained:
Assay type in all cases: cell-based
E. coli DH5α = assay: Antibacterial activity: MIC and growth curve against E. coli DH5α in 96-well plate; settings: minimal inhibitory concentration against E. coli DH5α; 96-well plate, 5×10^5 CFU/mL, 37° C., judged after 8 h
Summary of the method: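 Log-phase DH5α (OD600 about 0.5, 37° C, 185 rpm in LB) was pelleted, resuspended in fresh LB and seeded at 5×10^5 CFU/mL with recombinant protein at 50, 25 and 12.5 μg/mL (two-fold series), in triplicate. Plates were shaken at 175 rpm, 37° C, and OD600 was read every 30 min. MIC was the lowest concentration with no growth.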

E. coli BL21 = assay: MIC against Gram-negative bacteria: E. coli BL21; settings: 5×10^5 CFU/mL; for MIC E. coli BL21: two-fold serial dilution; for MIC against E. coli BL21: 96-well plate, 37° C., 10 h
Summary of the method: (§1)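 Inocula prepared by growing LB cultures at 37° C to 0.5 McFarland, centrifuging at 4000×g, and resuspending in fresh medium. Final density 5×10^5 CFU/mL per well with two-fold dilutions of purified EGF domain protein; shaking incubation at 37° C.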

Pseudomonas aeruginosa = assay: MIC against Gram-negative bacteria: Pseudomonas aeruginosa; settings: 5×10^5 CFU/mL; for MIC P. aeruginosa: two-fold serial dilution; for MIC against P. aeruginosa: 96-well plate, 37° C., 10 h
Summary of the method: as §1

Klebsiella pneumonia = assay: MIC against Gram-negative bacteria: Klebsiella pneumonia; settings: 5×10^5 CFU/mL; for MIC K. pneumonia: two-fold serial dilution; for MIC against K. pneumonia: 96-well plate, 37° C., 10 h
Summary of the method: as §1

Enterobacter cloacae = assay: MIC against Gram-negative bacteria: Enterobacter cloacae; settings: 5×10^5 CFU/mL; for MIC E. cloacae: two-fold serial dilution; for MIC against E. cloacae: 96-well plate, 37° C., 10 h
Summary of the method: as §1

Aeromonas hydrophila = assay: MIC against Gram-negative bacteria: Aeromonas hydrophila; settings: 5×10^5 CFU/mL; for MIC A. hydrophila: two-fold serial dilution; for MIC against A. hydrophila: 96-well plate, 37° C., 10 h
Summary of the method: as §1

Citrobacter diversus = assay: MIC against Gram-negative bacteria: Citrobacter diversus; settings: 5×10^5 CFU/mL; for MIC C. diversus: two-fold serial dilution; for MIC against C. diversus: 96-well plate, 37° C., 10 h
Summary of the method: as §1

Moraxella catarrhalis = assay: MIC against Gram-negative bacteria: Moraxella catarrhalis; settings: 5×10^5 CFU/mL; for MIC M. catarrhalis: two-fold serial dilution; for MIC against M. catarrhalis: 96-well plate, 37° C., 10 h
Summary of the method: as §1

Proteus mirabilis = assay: MIC against Gram-negative bacteria: Proteus mirabilis; settings: 5×10^5 CFU/mL; for MIC P. mirabilis: two-fold serial dilution; for MIC against P. mirabilis: 96-well plate, 37° C., 10 h
Summary of the method: as §1

Proteus vulgaris = assay: MIC against Gram-negative bacteria: Proteus vulgaris; settings: 5×10^5 CFU/mL; for MIC P. vulgaris: two-fold serial dilution; for MIC against P. vulgaris: 96-well plate, 37° C., 10 h
Summary of the method: as §1

Serratia marcescens = assay: MIC against Gram-negative bacteria: Serratia marcescens; settings: 5×10^5 CFU/mL; for MIC S. marcescens: two-fold serial dilution; for MIC against S. marcescens: 96-well plate, 37° C., 10 h
Summary of the method: as §1

Substance	MIC (E. coli DH5α)	MIC E. coli BL21 (E. coli BL21; 10 h cultivation at 37° C.)	MIC P. aeruginosa (Pseudomonas aeruginosa; 10 h cultivation at 37° C.)	MIC K. pneumonia (Klebsiella pneumonia; 10 h cultivation at 37° C.)	MIC E. cloacae (Enterobacter cloacae; 10 h cultivation at 37° C.)	MIC A. hydrophila (Aeromonas hydrophila; 10 h cultivation at 37° C.)	MIC C. diversus (Citrobacter diversus; 10 h cultivation at 37° C.)	MIC M. catarrhalis (Moraxella catarrhalis; 10 h cultivation at 37° C.)	MIC P. mirabilis (Proteus mirabilis; 10 h cultivation at 37° C.)	MIC P. vulgaris (Proteus vulgaris; 10 h cultivation at 37° C.)	MIC S. marcescens (Serratia marcescens; 10 h cultivation at 37° C.)	MIC against E. coli BL21 (E. coli BL21)	MIC against P. aeruginosa (Pseudomonas aeruginosa)	MIC against K. pneumonia (Klebsiella pneumonia)	MIC against E. cloacae (Enterobacter cloacae)	MIC against A. hydrophila (Aeromonas hydrophila)	MIC against C. diversus (Citrobacter diversus)	MIC against M. catarrhalis (Moraxella catarrhalis)	MIC against P. mirabilis (Proteus mirabilis)	MIC against P. vulgaris (Proteus vulgaris)	further results
PRT1050 (HFSRCPKQYKHYCIKGRCRFVVAEQTPSCVCDEGYIGARCE; listed as Homo sapiens)	25 µg/mL	12.5 µg/mL	25 µg/mL	12.5 µg/mL	25 µg/mL	25 µg/mL	12.5 µg/mL	12.5 µg/mL	12.5 µg/mL	50 µg/mL	12.5 µg/mL	–	–	–	–	–	–	–	–	–	–
PRT493 (CDCPHTQNTCDPETGECVCPPHTQGVKCEECEDGHWGYDAEVGCQA; listed as Homo sapiens)	12.5 µg/mL	–	–	–	–	–	–	–	–	–	–	50 µg/mL	12.5 µg/mL	50 µg/mL	25 µg/mL	12.5 µg/mL	25 µg/mL	50 µg/mL	25 µg/mL	12.5 µg/mL	MIC against S. marcescens (Serratia marcescens): 25 µg/mL
PRT1076 (SCLTCVGHCSNGGSCTMNSKMMPECQCPPHMTGPRCE; listed as Homo sapiens)	12.5 µg/mL	25 µg/mL	12.5 µg/mL	25 µg/mL	12.5 µg/mL	12.5 µg/mL	12.5 µg/mL	12.5 µg/mL	25 µg/mL	12.5 µg/mL	25 µg/mL	–	–	–	–	–	–	–	–	–	–
PRT460 (DRDECSGGPSPCSHACLNAPGRFSCTCPTGFALAWDDRNCR; listed as Homo sapiens)	50 µg/mL	–	–	–	–	–	–	–	–	–	–	25 µg/mL	12.5 µg/mL	25 µg/mL	50 µg/mL	12.5 µg/mL	50 µg/mL	25 µg/mL	12.5 µg/mL	50 µg/mL	MIC against S. marcescens (Serratia marcescens): 12.5 µg/mL
PRT850 (CQCHGHVDPVKTPKICKPESGECINCLHNTTGFWCENCLEGYVHDLEGNCIK; listed as Homo sapiens)	50 µg/mL	–	–	–	–	–	–	–	–	–	–	–	–	–	–	–	–	–	–	–	MIC (μg/mL) E. coli BL21 (E. coli BL21; E. coli BL21, 10 h cultivation at 37° C.): 25 µg/mL; MIC (μg/mL) P. aeruginosa (Pseudomonas aeruginosa; P. aeruginosa, 10 h cultivation at 37° C.): 12.5 µg/mL; MIC (μg/mL) K. pneumonia (Klebsiella pneumonia; K. pneumonia, 10 h cultivation at 37° C.): 50 µg/mL; MIC (μg/mL) E. cloacae (Enterobacter cloacae; E. cloacae, 10 h cultivation at 37° C.): 12.5 µg/mL; MIC (μg/mL) A. hydrophila (Aeromonas hydrophila; A. hydrophila, 10 h cultivation at 37° C.): 50 µg/mL; MIC (μg/mL) C. diversus (Citrobacter diversus; C. diversus, 10 h cultivation at 37° C.): 12.5 µg/mL; MIC (μg/mL) M. catarrhalis (Moraxella catarrhalis; M. catarrhalis, 10 h cultivation at 37° C.): 50 µg/mL; MIC (μg/mL) P. mirabilis (Proteus mirabilis; P. mirabilis, 10 h cultivation at 37° C.): 12.5 µg/mL; MIC (μg/mL) P. vulgaris (Proteus vulgaris; P. vulgaris, 10 h cultivation at 37° C.): 25 µg/mL; MIC (μg/mL) S. marcescens (Serratia marcescens; S. marcescens, 10 h cultivation at 37° C.): 50 µg/mL
